Drawing on ChEMBL document CHEMBL1155053, “Discovery of new Gram-negative antivirulence drugs: structure and properties of novel E. coli WaaC inhibitors” (Bioorg Med Chem Lett, 2008), this text covers IC50 for 14 compounds.

A short description of the assay: Inhibition of Escherichia coli heptosyltransferase Waac.

In turn, `CC1=NN(c2cccc(C(=O)O)c2)C(=O)/C1=C\c1ccc(-c2ccc(C(=O)O)cc2)o1` came in with an IC50 of 3 µM. For the compound `CC1=NN(c2ccc(C(=O)O)cc2)C(=O)/C1=C\c1ccc(-c2ccccc2)o1`, the half-maximal inhibitory concentration (IC50) was found to be 55 µM. The same measure for `CC1=NN(c2ccc(C(=O)O)cc2)C(=O)/C1=C\c1ccc(-c2ccc(Cl)c(C(=O)O)c2)o1`: 3.1 µM; for `CC1=NN(c2cccc(C(=O)O)c2)C(=O)/C1=C\c1ccc(-c2ccc(C(=O)O)c(C)c2)o1`: 31 µM; for `CC1=NN(c2cccc(C)c2)C(=O)/C1=C\c1ccc(-c2cccc(C(=O)O)c2)o1` (mixture of isomers): greater than 100 µM.

The compound `CC1=NN(c2ccc(C(=O)O)cc2)C(=O)/C1=C\c1ccc(-c2ccc(C(=O)O)cc2)o1` (mixture of isomers) had a half-maximal inhibitory concentration (IC50) of 51 µM. `CC1=NN(c2ccc(C(=O)O)cc2)C(=O)/C1=C\c1ccc(-c2cccc(C(N)=O)c2)o1` (mixture of isomers) yielded a concentration for half-maximal inhibition (IC50) of 18 µM.

`CC1=NN(c2cccc(C(=O)O)c2)C(=O)/C1=C\c1ccc(-c2ccc(S(N)(=O)=O)cc2)o1` (mixture of isomers) yielded a half-maximal inhibitory concentration (IC50) greater than 100 µM. Next, `COC(=O)c1cccc(-c2ccc(/C=C3\C(=O)N(c4cccc(C(=O)O)c4)N=C3C)o2)c1` (mixture of isomers): 49 µM; `CC1=NN(c2cccc(C(=O)O)c2)C(=O)/C1=C\c1ccc(-c2cccc(C(=O)O)c2)o1` (mixture of isomers): 2 µM; `CC(=O)c1cccc(-c2ccc(/C=C3\C(=O)N(c4cccc(C(=O)O)c4)N=C3C)o2)c1` (mixture of isomers): 15 µM. The compound `CC1=NN(c2ccccc2)C(=O)/C1=C\c1ccc(-c2ccc(Cl)c(C(=O)O)c2)o1` (mixture of isomers) yielded an IC50 greater than 100 µM. Take `COC(=O)c1cccc(N2N=C(C)/C(=C/c3ccc(-c4cccc(C(=O)O)c4)o3)C2=O)c1` (mixture of isomers): the IC50 was greater than 100 µM.

`CC1=NN(c2cccc(C(=O)O)c2)C(=O)/C1=C\c1ccc(-c2ccc(Cl)c(C(=O)O)c2)o1` (mixture of isomers): half-maximal inhibition (IC50) required 1 µM.

Broadly, the IC50 is the concentration at which inhibition is half-maximal. A higher IC50 goes with weaker potency in that assay.
